ChEMBL document CHEMBL6120939, “STATs, promising targets for the treatment of autoimmune and inflammatory diseases” (Eur J Med Chem, 2024)
Blank lines part the entries; values can stand above or below the molecule they belong to.

Key:
[1] = biological target: Signal transducer and activator of transcription 3 (Homo sapiens, UniProt P40763); assay: Inhibition of STAT3 phosphorylation in human HepG2 cells by immuno-fluorescence analysis; format: cell-based
Mus musculus [2] = assay: Anti-asthmatic activity in OVA-induced ip dosed female BALB/c mouse model assessed as reduction in pulmonary IL-13 level administered for 30 min measured after 21 days by ELISA; format: functional, organism-based
[3] = Inhibition of C57BL/6 mouse Th17 cell differentiation from CD4+ T cells assessed as reduction in IL-17a mRNA expression incubated for 96 hrs by qPCR analysis; format: functional, cell-based; conditions: C57BL/6, Th17, 96 h
Rattus norvegicus = assay: Antiinflammatory activity against TNBS-induced colitis in Sprague-Dawley rat model assessed as reduction in colon TNFalpha level at 1 mg/kg, po administered for 5 days by ELISA; format: functional, organism-based; conditions: 120 h
Mus musculus [4] = assay: Anti-inflammatory activity against DSS-induced acute colitis C57BL/6J mouse model assessed as reduction in IL-1beta level in colon at 10 to 20 mg/kg, po measured for 7 days by ELISA analysis; format: functional, organism-based; conditions: 168 h

Sequence of Signal transducer and activator of transcription 3 (P40763 whole entry): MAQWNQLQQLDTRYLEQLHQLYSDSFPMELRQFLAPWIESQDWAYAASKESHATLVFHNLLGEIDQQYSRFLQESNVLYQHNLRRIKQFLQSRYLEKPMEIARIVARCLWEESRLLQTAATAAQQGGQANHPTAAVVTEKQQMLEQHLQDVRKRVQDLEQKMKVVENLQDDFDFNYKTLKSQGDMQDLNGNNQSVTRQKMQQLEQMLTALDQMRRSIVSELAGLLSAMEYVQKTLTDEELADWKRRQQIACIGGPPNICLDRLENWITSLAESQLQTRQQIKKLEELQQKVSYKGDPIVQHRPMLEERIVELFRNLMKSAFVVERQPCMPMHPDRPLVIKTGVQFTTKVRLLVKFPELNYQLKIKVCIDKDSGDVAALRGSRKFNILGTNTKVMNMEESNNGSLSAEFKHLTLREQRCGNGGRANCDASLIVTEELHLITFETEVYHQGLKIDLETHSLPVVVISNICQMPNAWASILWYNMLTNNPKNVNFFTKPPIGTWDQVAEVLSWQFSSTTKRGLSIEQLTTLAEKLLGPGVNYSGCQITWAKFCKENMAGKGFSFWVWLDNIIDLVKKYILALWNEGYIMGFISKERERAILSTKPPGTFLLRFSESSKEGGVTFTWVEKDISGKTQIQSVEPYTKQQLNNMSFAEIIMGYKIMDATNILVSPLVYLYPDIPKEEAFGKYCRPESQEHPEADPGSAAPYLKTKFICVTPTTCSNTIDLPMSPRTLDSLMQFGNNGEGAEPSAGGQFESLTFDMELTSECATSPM

SMILES: NS(=O)(=O)c1cccc2c1C(=O)c1cccc(O)c1C2=O
IC50 [3]: 180 nM

SMILES: NC(=O)c1cnc(Nc2ccc(N3CCOCC3)cc2)nc1NCc1c(F)ccc(F)c1F
IC50 (Mus musculus [2]): 0.7 nM

SMILES: CN(C)C(=O)Oc1cccc2c1C(=O)c1cccc(S(N)(=O)=O)c1C2=O
IC50 [3]: 220 nM

SMILES: COc1ccc(S(=O)(=O)Nc2cc(-c3c(O)ccc4ccccc34)c(O)c3ccccc23)cc1 [C-188-9]
IC50 (Rattus norvegicus): 4000 nM

More lines, now with the values ahead:

IC50 [1]: 12200 nM
SMILES: CC1CC(=O)c2c(ccc3c2C(=O)c2cccc(O)c2C3=O)C1 (stereo not drawn)

IC50 (Mus musculus [2]): 21 nM
SMILES: NC(=O)c1cnc(NCCc2ccc(O)c(Cl)c2)nc1NCc1ccccc1

IC50 (Rattus norvegicus): 86000 nM
SMILES: Cc1ccc(S(=O)(=O)OCC(=O)Nc2ccc(C(=O)O)c(O)c2)cc1

IC50 (Mus musculus [4]): 4740 nM
SMILES: Cc1cc(OCCCS(C)(=O)=O)cc(C)c1-c1cccc(COc2ccc3c(c2)OC[C@H]3CC(=O)O)c1 [FASIGLIFAM]
